# According to ChEMBL document CHEMBL4184305, “Inhibition of histone lysine methyltransferases G9a and GLP by ejection of structural Zn(II)” (Bioorg Med Chem Lett, 2018):
# The source made the active and inactive calls. The rule behind the calls is not given here.
# Columns and labels:
# [1] = target: T1, Histone-lysine N-methyltransferase EHMT1 (Homo sapiens) (UniProt Q9H9B1); assay: Inhibition of wild type recombinant human histone lysine methyltransferase GLP (951 to 1235 residues) expressed in Escherichia coli Rosetta BL21 DE3 PlysS assessed as zinc ions ejection from Cys4-Zn finger at 2.5 to 100 uM after 500 to 3500 secs by FluoZin-3 based fluorescence assay
# T1 sequence (whole entry): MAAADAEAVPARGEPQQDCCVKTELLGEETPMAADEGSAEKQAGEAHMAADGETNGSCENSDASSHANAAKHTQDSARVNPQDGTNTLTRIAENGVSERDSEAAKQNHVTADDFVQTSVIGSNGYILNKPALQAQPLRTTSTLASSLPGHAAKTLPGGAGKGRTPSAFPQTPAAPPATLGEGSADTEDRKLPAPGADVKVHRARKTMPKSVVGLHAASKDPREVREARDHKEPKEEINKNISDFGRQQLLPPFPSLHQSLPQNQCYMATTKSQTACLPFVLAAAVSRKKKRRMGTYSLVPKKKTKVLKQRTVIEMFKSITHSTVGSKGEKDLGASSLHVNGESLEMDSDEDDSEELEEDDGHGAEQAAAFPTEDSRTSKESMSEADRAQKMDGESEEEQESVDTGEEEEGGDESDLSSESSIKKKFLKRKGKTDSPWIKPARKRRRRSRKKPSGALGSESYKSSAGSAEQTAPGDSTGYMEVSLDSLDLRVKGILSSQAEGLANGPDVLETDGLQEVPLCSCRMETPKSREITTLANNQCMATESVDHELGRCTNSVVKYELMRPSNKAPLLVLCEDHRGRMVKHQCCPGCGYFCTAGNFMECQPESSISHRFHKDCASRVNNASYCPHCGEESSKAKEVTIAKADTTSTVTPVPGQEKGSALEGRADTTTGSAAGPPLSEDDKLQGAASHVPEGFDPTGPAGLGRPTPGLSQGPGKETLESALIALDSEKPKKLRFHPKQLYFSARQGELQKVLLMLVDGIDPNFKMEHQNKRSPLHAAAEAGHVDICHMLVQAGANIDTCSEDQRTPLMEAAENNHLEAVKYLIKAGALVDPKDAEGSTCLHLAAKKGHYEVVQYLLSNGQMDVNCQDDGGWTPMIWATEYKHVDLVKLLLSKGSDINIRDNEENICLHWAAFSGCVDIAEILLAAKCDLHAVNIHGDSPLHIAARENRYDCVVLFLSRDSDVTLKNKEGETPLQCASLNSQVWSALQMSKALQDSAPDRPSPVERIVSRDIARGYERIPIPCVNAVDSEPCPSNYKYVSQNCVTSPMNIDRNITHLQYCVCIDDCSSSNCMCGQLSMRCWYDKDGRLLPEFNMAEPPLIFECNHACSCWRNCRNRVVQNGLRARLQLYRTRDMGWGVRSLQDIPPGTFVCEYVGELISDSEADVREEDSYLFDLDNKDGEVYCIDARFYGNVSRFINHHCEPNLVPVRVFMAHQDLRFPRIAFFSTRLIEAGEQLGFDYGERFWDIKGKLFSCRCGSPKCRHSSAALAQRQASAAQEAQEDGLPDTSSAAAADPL
# [2] = target: T2, Histone-lysine N-methyltransferase EHMT2 (Homo sapiens) (UniProt Q96KQ7); assay: Inhibition of wild type recombinant human histone lysine methyltransferase G9a (913 to 1193 residues) expressed in Escherichia coli Rosetta BL21 DE3 PlysS assessed as zinc ions ejection from 3 types of Cys9-type Zn fingers at >25 uM after 1 hr by circular dichroism analysis
# T2 sequence (whole entry): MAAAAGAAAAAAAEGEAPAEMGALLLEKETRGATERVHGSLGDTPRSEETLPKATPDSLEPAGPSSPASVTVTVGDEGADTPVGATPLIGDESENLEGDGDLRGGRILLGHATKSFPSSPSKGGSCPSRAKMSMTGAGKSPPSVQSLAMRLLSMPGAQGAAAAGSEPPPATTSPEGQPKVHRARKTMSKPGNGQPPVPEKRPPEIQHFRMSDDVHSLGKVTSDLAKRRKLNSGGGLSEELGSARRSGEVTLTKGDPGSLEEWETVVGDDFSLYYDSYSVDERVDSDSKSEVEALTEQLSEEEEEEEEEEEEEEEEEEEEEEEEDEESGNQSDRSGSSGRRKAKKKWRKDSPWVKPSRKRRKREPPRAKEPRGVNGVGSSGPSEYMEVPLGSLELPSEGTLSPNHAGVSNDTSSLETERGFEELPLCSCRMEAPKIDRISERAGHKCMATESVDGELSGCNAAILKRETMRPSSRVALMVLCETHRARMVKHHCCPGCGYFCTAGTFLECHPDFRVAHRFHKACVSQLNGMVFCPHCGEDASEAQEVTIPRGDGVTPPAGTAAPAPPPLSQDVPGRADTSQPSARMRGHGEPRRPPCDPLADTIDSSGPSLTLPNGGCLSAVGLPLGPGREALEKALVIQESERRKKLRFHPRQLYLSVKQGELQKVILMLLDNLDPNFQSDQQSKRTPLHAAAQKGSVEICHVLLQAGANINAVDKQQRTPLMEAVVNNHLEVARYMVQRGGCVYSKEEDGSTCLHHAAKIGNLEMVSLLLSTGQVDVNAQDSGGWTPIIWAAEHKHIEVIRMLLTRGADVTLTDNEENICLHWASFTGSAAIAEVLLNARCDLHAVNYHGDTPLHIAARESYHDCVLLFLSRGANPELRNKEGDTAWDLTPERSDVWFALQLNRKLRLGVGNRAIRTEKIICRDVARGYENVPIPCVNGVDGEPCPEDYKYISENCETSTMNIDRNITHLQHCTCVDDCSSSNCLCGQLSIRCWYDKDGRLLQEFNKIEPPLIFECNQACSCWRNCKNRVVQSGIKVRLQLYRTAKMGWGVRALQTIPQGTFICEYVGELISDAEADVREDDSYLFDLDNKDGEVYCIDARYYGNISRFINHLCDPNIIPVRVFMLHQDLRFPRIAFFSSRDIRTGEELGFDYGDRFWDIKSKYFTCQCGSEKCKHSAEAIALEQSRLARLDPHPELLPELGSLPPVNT
# [3] = target: T1, Histone-lysine N-methyltransferase EHMT1 (Homo sapiens); assay: Inhibition of wild type recombinant human histone lysine methyltransferase GLP (951 to 1235 residues) expressed in Escherichia coli Rosetta BL21 DE3 PlysS assessed as zinc ions ejection from Cys4-Zn finger at 2.5 to 100 uM measured up to 1 min by FluoZin-3 based fluorescence assay
# [4] = target: T1, Histone-lysine N-methyltransferase EHMT1 (Homo sapiens); assay: Inhibition of wild type recombinant human histone lysine methyltransferase GLP (951 to 1235 residues) expressed in Escherichia coli Rosetta BL21 DE3 PlysS assessed as zinc ions ejection from Cys4-Zn finger at >25 uM after 1 hr by circular dichroism analysis
# [5] = target: T3, Histone-lysine N-methyltransferase EHMT2 (Homo sapiens, UniProt Q96KQ7); assay: Inhibition of wild type recombinant human histone lysine methyltransferase G9a (913 to 1193 residues) expressed in Escherichia coli Rosetta BL21 DE3 PlysS using ARTKQTARKSTGGKA as substrate preincubated for 5 mins followed by substrate/SAM addition measured after 60 mins by MALDI-TOF MS analysis
# T3 sequence (Q96KQ7 whole entry): T2 sequence (whole entry)
SMILES,inhibition [1],inhibition [2],inhibition [3],inhibition [4],IC50 [5]
CCN(CC)C(=S)SSC(=S)N(CC)CC,Active,–,–,–,–
O=c1c2ccccc2[se]n1-c1ccccc1 [EBSELEN],–,Active,Active,Active,400 nM
